Measured values: patent publication EP1268487B1, “TRICYCLIC PROTEIN KINASE INHIBITORS” (Wyeth, priority 2000, dated 2001)
Values after ≈ are worked out from the molar mass of the structure shown.

Legend:
c-Met = target: T1, c-Met (Homo sapiens, UniProt P08581); experiment: DELFIA assay for c-Met receptor kinase inhibitors; format: biochemical
T1 construct: The cytoplasmic domain of c-Met was generated by reverse transcriptase-polymerase chain reaction; His tag (from pFastBac-HTc vector; purified on Ni-NTA/Talon); made in house; host or cells: Sf9 insect cells (baculovirus)
Description: The c-Met kinase assay was performed as a DELFIA (dissociation enchanced lanthanide fluorometric immunoassay), an ELISA-like protocol based upon time-resolved fluorometry as described previously [Braunwalder, A. F., Yarwood, D.R., Sills, M.A., and Lipson, K.E., Anal. Biochem. 238, 159-164 (1996)]. The protocol was adopted for the screening of inhibitors of the kinase activity of recombinant c-Met. [Loganzo, F., and. Hardy, C., American Biotechnology Laboratory 16(13), 26-28 (1998)]. The cytoplasmic domain of c-Met was generated by reverse transcriptase-polymerase chain reaction using RNA isolated from human mammary epithelial cells as template, cloned into the pFastBac-HTc vector (Life Technologies) and protein expressed in Sf9 insect cells by baculovirus infection. Protein was purified by imidazole elution from Ni-NTA resin (Invitrogen, Carlsbad, CA) or Talon resin (Clontech, Palo Alto, CA). Various conditions were evaluated for the kinase screening protocol and screening was accomplished with the following method. Polystyrene Maxisorp plates (Nunc) were pre-coated for 1 hour to overnight at room temperature with 5 µg/ml poly(Glu4-Tyr) diluted in Tris-buffered saline (TBS). Plates were washed 3X with TBS. c-Met protein preparation was diluted 1:80 into 0.1% BSA/ 4 mM HEPES. A master mix was prepared consisting of: 1 volume of diluted c-Met, 1 volume of 5X buffer (20 mM HEPES, pH 7.4; 2 mM MnCl2; 100 µM Na3VO4; 1 mM DTT), 0.9 volume of water. Master mix (29 µl) was added to the wells of peptide-coated microtiter plates. For assays where c-Met autophosphorylation was evaluated, plates were uncoated and c-Met was diluted into 4 mM HEPES at 1:40 without BSA. Compounds (1 µl) at various dilutions (1 mM to 0.1 µM) prepared in DMSO were added and mixed well with an automatic piptettor. After incubation 20 minutes at room temperature, the reaction was initiated with 20 µl of 62.5 µM ATP/ 50 mM MgCl2 (final 25 µM ATP/ 20 mM MgCl2 in assay). Reactions were incubated 45 minutes at room temperature. Plates were then washed 3X with 100 µl each of DELFIA wash buffer (Wallac). Antibody binding was performed by adding 75 µl of Europium-conjugated anti-phosphotyrosine diluted 1:2000 in Assay Buffer (Wallac) for 1 hour at room temperature. Plates were washed 3X with DELFIA wash buffer. Detection was done by addition of 100 µl of Enhancement Solution (Wallac). After 30 minutes, plates were read in a Wallac VICTOR-2 time-resolved fluorometer. Inhibition data was reported as europium counts for compound treated wells normalized to control counts. IC50 values were obtained by using log doses of compound and calculated using Data Analysis Toolbox software, version 1.0.2 (MDL Information Systems, Inc.).

[1] = target: T2, Epidermal Growth Factor Receptor Kinase (EGF-R) (Homo sapiens, UniProt P00533); experiment: Inhibition of Epidermal Growth Factor Receptor Kinase (EGF-R) using recombinant enzyme; format: biochemical; conditions: 0.5 µM concentration of test compound
T2 construct: containing the EGFR cDNA encoding amino acids 645 - 1186 preceded by Met-Ala-(His)6; Met-Ala-(His)6 (N); made in house; host or cells: Sf9 insect cells (baculovirus vHcEGFR52)
Description: Representative test compounds were evaluated for their ability to inhibit the phosphorylation of the tyrosine residue of a peptide substrate catalyzed by the enzyme epidermal growth factor receptor kinase. The peptide substrate (RR-SRC) has the sequence arg-arg-leu-ile-glu-asp-ala-glu-tyr-ala-ala-arg-gly. The enzyme used in this assay is the His-tagged cytoplasmic domain of EGFR. A recombinant baculovirus (vHcEGFR52) was constructed containing the EGFR cDNA encoding amino acids 645 - 1186 preceded by Met-Ala-(His)6. Sf9 cells in 100 mm plates were infected at an moi of 10 pfu/cell and cells were harvested 48 hours post infection. A cytoplasmic extract was prepared using 1% Triton X-100 and applied to Ni-NTA column. After washing the column with 20 mM imidazole, HcEGFR was eluted with 250 mM imidazole (in 50 mM Na2HPO4, pH 8.0, 300 mM NaCl). Fractions collected were dialyzed against 10 mM HEPES, pH 7.0, 50 mM NaCl, 10% glycerol, 1µg/mL antipain and leupeptin and 0.1 mM Pefabloc SC. The protein was frozen in dry ice/methanol and stored -70° C.
Test compounds were made into 10 mg/mL stock solutions in 100% dimethylsulfoxide (DMSO). Prior to experiment, stock solutions were diluted to 500 µM with 100% DMSO and then serially diluted to the desired concentration with HEPES buffer (30 mM HEPES pH 7.4).
For the enzyme reaction, 10 µL of each inhibitor (at various concentrations) were added to each well of a 96-well plate. To this was added 3 µL of enzyme (1:10 dilution in 10mM HEPES, pH 7.4 for final conc. of 1:120). This was allowed to sit for 10 minutes on ice and was followed by the addition of 5 µl peptide (80 uM final conc.), 10µl of 4X Buffer (Table A), 0.25 µL ^33P-ATP and 12 µL H2O. The reaction was allowed to run for 90 minutes at room temperature and was followed by spotting the entire volume on to precut P81 filter papers. The filter discs were washed 2X with 0.5% phosphoric acid and radioactivity was measured using a liquid scintillation counter. Table A
The inhibition data for representative compounds of the invention are shown below in TABLE 1. The IC50 is the concentration of test compound needed to reduce the total amount of phosphorylated substrate by 50%. The % inhibition of the test compound was determined for at least three different concentrations and the IC50 value was evaluated from the dose response curve. […] CPM(control) is in units of counts per minute and was a number expressing the amount of radiolabeled ATP (γ-^33P) incorporated into the RR-SRC peptide substrate by the enzyme after 90 minutes at room temperature in the absence of test compound as measured by liquid scintillation counting. The CPM values were corrected for the background counts produced by ATP in the absence of the enzymatic reaction. Where it was possible to determine an IC50 value, this is reported in TABLE 1 otherwise the % inhibition at 0.5 µM concentration of test compound is shown in TABLE 1.

A431 = experiment: Inhibition of cancer cell growth as measured by cell number (Sulforhodamine B); format: cell-based; conditions: Homo sapiens, A-431; 48 hours exposure
Description: (§1) Human tumor cell lines were plated in 96-well plates (250 µl/well, 1-6 x 10^4 cells/ml) in RPMI 1640 medium, containing 5% FBS (Fetal Bovine Serum). […] After 48 hours exposure to test compounds, cells were fixed with trichloroacetic acid, and stained with Sulforhodamine B. After washing with trichloroacetic acid, bound dye was solubilized in 10 mM Tris base and optical density was determined using a plate reader. Under conditions of the assay the optical density is proportional to the number of cells in the well. IC50s (concentrations causing 50% inhibition of cell growth) were determined from the growth inhibition plots. The test procedure is described in details by Philip Skehan et. al, J.Natl. Canc. Inst., 82, 1107-1112 (1990). […] Information about some of the cell lines used in these test procedures is available from the American Type Tissue Collection: Cell Lines and Hybridomas, 1994 Reference Guide, 8th Edition. The Her2Neu cell line is a 3T3 line that has been transfected with Her2 receptor kinase.

3T3 = experiment: as above; format: cell-based; conditions: Mus musculus, NIH3T3; 48 hours exposure
Description: as §1

Her2Neu = experiment: as above; format: cell-based; conditions: 48 hours exposure; 3T3 line transfected with Her2 receptor kinase
Description: as §1

SW620 = experiment: as above; format: cell-based; conditions: Homo sapiens, SW-620; 48 hours exposure
Description: as §1

MDA435 = experiment: as above; format: cell-based; conditions: Homo sapiens, 48 hours exposure
Description: as §1

SKBR3 = experiment: as above; format: cell-based; conditions: Homo sapiens, SK-BR-3; 48 hours exposure
Description: as §1

T2 sequence (P00533 669-1210): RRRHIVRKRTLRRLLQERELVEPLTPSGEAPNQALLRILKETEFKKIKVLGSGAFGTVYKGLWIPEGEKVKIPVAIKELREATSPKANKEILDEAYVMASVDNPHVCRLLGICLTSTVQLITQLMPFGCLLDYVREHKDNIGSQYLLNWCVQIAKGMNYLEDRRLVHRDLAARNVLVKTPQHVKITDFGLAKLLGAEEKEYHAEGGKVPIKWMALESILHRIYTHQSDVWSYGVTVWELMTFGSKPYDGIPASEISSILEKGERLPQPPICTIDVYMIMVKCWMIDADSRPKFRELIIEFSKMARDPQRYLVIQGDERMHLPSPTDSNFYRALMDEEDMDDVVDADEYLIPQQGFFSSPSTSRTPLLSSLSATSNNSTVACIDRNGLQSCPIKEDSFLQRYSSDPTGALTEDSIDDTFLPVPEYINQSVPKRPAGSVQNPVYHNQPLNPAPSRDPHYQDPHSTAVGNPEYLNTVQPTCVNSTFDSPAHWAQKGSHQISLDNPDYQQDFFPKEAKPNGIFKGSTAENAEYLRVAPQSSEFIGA
T1 sequence (P08581 956-1390 limits assumed): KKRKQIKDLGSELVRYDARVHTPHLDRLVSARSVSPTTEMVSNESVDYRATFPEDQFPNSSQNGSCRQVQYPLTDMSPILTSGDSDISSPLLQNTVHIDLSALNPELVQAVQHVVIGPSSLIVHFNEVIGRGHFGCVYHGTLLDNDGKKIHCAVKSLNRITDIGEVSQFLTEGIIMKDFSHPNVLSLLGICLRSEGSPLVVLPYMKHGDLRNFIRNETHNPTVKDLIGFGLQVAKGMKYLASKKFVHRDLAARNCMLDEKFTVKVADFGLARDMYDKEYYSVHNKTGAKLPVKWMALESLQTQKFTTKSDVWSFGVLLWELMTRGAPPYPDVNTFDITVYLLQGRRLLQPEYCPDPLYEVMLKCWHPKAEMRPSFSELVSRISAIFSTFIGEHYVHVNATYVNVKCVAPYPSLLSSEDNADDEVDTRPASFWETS

inhibition at 10 µg/mL (c-Met) [%] | inhibition at 0.5 µM [1] [%] | IC50 (A431) [µg/mL] | IC50 (Her2Neu) [µg/mL] | IC50 (SW620) [µg/mL] | IC50 (MDA435) [µg/mL] | IC50 (SKBR3) [µg/mL] | Compound | IC50 (3T3) [µg/mL]
50 | 57.8 | 1.01 (≈ 2.15 µM) | > 5 | 1.89 (≈ 4.04 µM) | 2.72 (≈ 5.81 µM) | 1.07 (≈ 2.28 µM) | CN(C)CCCC(=O)N1CCOc2cc3ncc(C#N)c(Nc4ccc(F)c(Cl)c4)c3cc21 [Example 10] | 1.99 (≈ 4.25 µM)
66 | 53.5 | 0.47 (≈ 1.04 µM) | > 5 | 1.5 (≈ 3.3 µM) | 2.36 (≈ 5.2 µM) | 0.649 (≈ 1.43 µM) | CN(C)CCCCN1CCOc2cc3ncc(C#N)c(Nc4ccc(F)c(Cl)c4)c3cc21 [Example 12, 9-(3-Chloro-4-fluoroanilino)-1-[4-(dimethylamino)butyl]-2,3-dihydro-1H-[1,4]oxazino[3,2-g]quinoline-8-carbonitrile] | 1.49 (≈ 3.28 µM)
